Laboratory results published in patent US20060014949A1 (SuperGen Inc., priority 2004, published 2006).
In brackets after ≈: the same amount, converted by molar mass.

Legend:
Format in all cases: physicochemical
[1] = Approximate solubility by solvent aliquot addition, visual inspection; conditions: thermodynamic from solid
Description: Solvents were either reagent or HPLC grade. The aliquots were typically either 100 μL or 1 mL. Between additions, the mixture was typically shaken or sonicated. Whether the solids dissolved was judged by visual inspection. Solubilities were estimated from these experiments based on the total solvent used to provide complete dissolution.
Solubilities were estimated from these experiments based on the total solvent used to give a solution. Duplicate runs were averaged.

[2] = Solid-state stress (compression, heating, grinding, storage) with XRPD form check
Description: X-ray powder diffraction analyses were carried out on a Shimadzu XRD-6000 X-ray powder diffractometer using Cu Kα radiation having a wavelength of 1.5406 Å. The instrument is equipped with a fine-focus X-ray tube. The tube power was set by setting potential difference at 40 kV, and current 40 mA. The divergence and scattering slits were set at 1° and the receiving slit was set at 0.15 mm. Diffracted radiation was detected by a NaI scintillation detector. A theta-two theta continuous scan at 3°/min (0.4 sec/0.02° step) from 2.5 to 40 °2θ was performed. A silicon standard was analyzed each day to check the instrument alignment. Each sample was analyzed in a quartz sample holder. A variable temperature (VT-XRPD) experiment was performed on one form. The sample was prepared for analysis by pressing it into a variable temperature holder.

[3] = Moisture sorption/desorption analysis (VTI SGA-100); conditions: for solid form after moisture sorption/desorption analysis: after sorption/desorption cycle
Description: Moisture sorption/desorption data were collected on a VTI SGA-100 Vapor Sorption Analyzer. Sorption and desorption data were collected over a range of 5 to 95% relative humidity (RH) at 10% RH increments under a nitrogen purge. Sodium chloride (NaCl) and polyvinylpyrrolidone (PVP) were used as the calibration standards. Equilibrium criteria used for analysis were less than 0.0100% weight change in 5 minutes, with a maximum equilibration time of 180 minutes if the weight criterion was not met. Data collected were not corrected for the initial moisture content of the samples.

[4] = Thermogravimetric analysis (TGA)
Description: Thermogravimetric analysis (TGA) was carried out on TA Instruments TGA 2050 or 2950. The calibration standards were nickel and Alumel™. Samples were placed on a clean, aluminum sample pan, accurately weighed, and inserted into the TGA furnace. The samples were heated in nitrogen at a rate of 10° C./min, from 35° C. to a final temperature of 250° C.

[5] = Relative humidity stress experiments, XRPD after storage over saturated salt solutions
Description: In relative humidity (RH) stress analysis, open vials containing solid samples were placed inside chambers containing saturated salt solutions along with a small amount of the undissolved salt. The chambers were sealed and allowed to stand at ambient temperature for several days. Samples were analyzed by X-ray powder diffraction (XRPD) immediately after removing the sample from the RH chamber. The RH values these salt solutions were obtained from an ASTM standard.

Nc1ncn([C@H]2C[C@H](O)[C@@H](CO)O2)c(=O)n1 [Decitabine, 5-aza-2′-deoxycytidine]
solubility ([1]; 1,1,1,3,3,3-hexafluoro-2-propanol, organic solvent or mixture, solvent 1,1,1,3,3,3-Hexafluoro-2-propanol): ~18 mg/mL (≈ 78.9 mM) | solubility ([1]; 1,1,1-trichloroethane, organic solvent or mixture, solvent 1,1,1-Trichloroethane): < 1 mg/mL | solubility ([1]; 1,4-dioxane, organic solvent or mixture, solvent 1,4-Dioxane): < 2 mg/mL | solubility ([1]; 2-butanone, organic solvent or mixture, solvent 2-Butanone): < 1 mg/mL | solubility ([1]; 2-propanol, organic solvent or mixture, solvent 2-Propanol): < 1 mg/mL | solubility ([1]; acetone, organic solvent or mixture, solvent Acetone): < 1 mg/mL | solubility ([1]; acetonitrile, organic solvent or mixture, solvent Acetonitrile): < 1 mg/mL | solubility ([1]; chloroform, organic solvent or mixture, solvent Chloroform): < 1 mg/mL | solubility ([1]; dichloromethane, organic solvent or mixture, solvent Dichloromethane): < 1 mg/mL | solubility ([1]; dichloromethane:ethanol (1:1), organic solvent or mixture, solvent Dichloromethane:Ethanol (1:1)): < 1 mg/mL | solubility ([1]; dichloromethane:methanol (1:1), organic solvent or mixture, solvent Dichloromethane:Methanol (1:1)): > 1 mg/mL | solubility ([1]; diethylamine, organic solvent or mixture, solvent Diethylamine): < 1 mg/mL | solubility ([1]; ethyl acetate, organic solvent or mixture, solvent Ethyl Acetate): < 1 mg/mL | solubility ([1]; ethyl ether, organic solvent or mixture, solvent Ethyl Ether): < 1 mg/mL | solubility ([1]; hexanes, organic solvent or mixture, solvent Hexanes): < 1 mg/mL | solubility ([1]; methanol:2,2,2-trifluoroethanol (1:1), organic solvent or mixture, solvent Methanol:2,2,2-Trifluoroethanol (1:1)): > 1 mg/mL | solubility ([1]; methanol:water (1:1), aqueous with cosolvent or surfactant or cyclodextrin, solvent Methanol:Water (1:1)): 4 mg/mL (≈ 17.5 mM) | solubility ([1]; methyl sulfide, organic solvent or mixture, solvent Methyl Sulfide): < 1 mg/mL | solubility ([1]; methyl sulfoxide, organic solvent or mixture, solvent Methyl Sulfoxide): ~37 mg/mL (≈ 162 mM) | solubility ([1]; nitromethane, organic solvent or mixture, solvent Nitromethane): < 1 mg/mL | solubility ([1]; tetrahydrofuran, organic solvent or mixture, solvent Tetrahydrofuran): < 1 mg/mL | solubility ([1]; toluene, organic solvent or mixture, solvent Toluene): < 1 mg/mL | solubility ([1]; water, solvent Water): ~8 mg/mL (≈ 35.1 mM) | XRPD Pattern ([2]; no solvent, Hydraulic Press 10,000 lbs ~3 min): A + 1 peak

Nc1ncn([C@H]2C[C@H](O)[C@@H](CO)O2)c(=O)n1.O [Form B]
water regained at 95% RH ([3]; 95% RH): 0.09% | Weight % chg ([3]; Table 5, desorption, RH 4.98 %, 25.07 deg C, 854.2 min): −2.2984% | Weight % chg ([3]; Table 5, desorption, RH 15.05 %, 25.07 deg C, 672.3 min): 0.0005% | Weight % chg ([3]; Table 5, desorption, RH 25.12 %, 25.06 deg C, 665.2 min): 0.0098% | Weight % chg ([3]; Table 5, desorption, RH 35.00 %, 25.07 deg C, 658.2 min): 0.0184% | Weight % chg ([3]; Table 5, desorption, RH 45.01 %, 25.06 deg C, 650.7 min): 0.0274% | Weight % chg ([3]; Table 5, desorption, RH 55.06 %, 25.06 deg C, 643.2 min): 0.0357% | Weight % chg ([3]; Table 5, desorption, RH 65.04 %, 25.07 deg C, 635.7 min): 0.0439% | Weight % chg ([3]; Table 5, desorption, RH 75.10 %, 25.06 deg C, 627.7 min): 0.0553% | Weight % chg ([3]; Table 5, desorption, RH 85.33 %, 25.07 deg C, 619.7 min): 0.0688% | Weight % chg ([3]; Table 5, sorption, RH 4.98 %, 25.06 deg C, 185.1 min): −2.3894% | Weight % chg ([3]; Table 5, sorption, RH 15.24 %, 25.07 deg C, 193.2 min): −2.4118% | Weight % chg ([3]; Table 5, sorption, RH 24.84 %, 25.07 deg C, 242.2 min): −2.2223% | Weight % chg ([3]; Table 5, sorption, RH 35.00 %, 25.06 deg C, 384.9 min): −1.2517% | Weight % chg ([3]; Table 5, sorption, RH 44.84 %, 25.06 deg C, 499.6 min): −0.5520% | Weight % chg ([3]; Table 5, sorption, RH 54.81 %, 25.07 deg C, 556.5 min): −0.1535% | Weight % chg ([3]; Table 5, sorption, RH 65.01 %, 25.07 deg C, 579.8 min): −0.0371% | Weight % chg ([3]; Table 5, sorption, RH 74.89 %, 25.08 deg C, 592.3 min): 0.0119% | Weight % chg ([3]; Table 5, sorption, RH 84.81 %, 25.08 deg C, 601.5 min): 0.0426% | Weight % chg ([3]; Table 5, sorption, RH 94.59 %, 25.09 deg C, 613.0 min): 0.0851% | Weight % chg ([3]; Table 5, start, RH 2.15 %, 25.08 deg C, 0.0 min): 0.0000% | Weight % chg ([3]; Table 7, desorption, RH 4.96 %, 25.03 deg C, 887.7 min): −1.6786% | Weight % chg ([3]; Table 7, desorption, RH 14.79 %, 25.03 deg C, 771.0 min): 6.1361% | Weight % chg ([3]; Table 7, desorption, RH 24.87 %, 25.03 deg C, 758.6 min): 6.2283% | Weight % chg ([3]; Table 7, desorption, RH 35.04 %, 25.03 deg C, 749.3 min): 6.3408% | Weight % chg ([3]; Table 7, desorption, RH 45.13 %, 25.02 deg C, 739.6 min): 6.4585% | Weight % chg ([3]; Table 7, desorption, RH 54.99 %, 25.02 deg C, 725.7 min): 6.6172% | Weight % chg ([3]; Table 7, desorption, RH 65.12 %, 25.03 deg C, 711.7 min): 6.8321% | Weight % chg ([3]; Table 7, desorption, RH 75.27 %, 25.03 deg C, 697.2 min): 7.1750% | Weight % chg ([3]; Table 7, desorption, RH 85.18 %, 25.03 deg C, 673.5 min): 7.9222% | Weight % chg ([3]; Table 7, sorption, RH 4.95 %, 25.07 deg C, 47.5 min): −1.4176% | Weight % chg ([3]; Table 7, sorption, RH 14.98 %, 25.08 deg C, 60.6 min): −1.3613% | Weight % chg ([3]; Table 7, sorption, RH 24.93 %, 25.08 deg C, 73.7 min): −1.2692% | Weight % chg ([3]; Table 7, sorption, RH 35.04 %, 25.08 deg C, 94.3 min): −0.8649% | Weight % chg ([3]; Table 7, sorption, RH 44.87 %, 25.08 deg C, 116.7 min): −0.4555% | Weight % chg ([3]; Table 7, sorption, RH 55.02 %, 25.05 deg C, 298.7 min): 3.5457% | Weight % chg ([3]; Table 7, sorption, RH 65.01 %, 25.05 deg C, 385.9 min): 6.2129% | Weight % chg ([3]; Table 7, sorption, RH 74.94 %, 25.05 deg C, 413.2 min): 6.6223% | Weight % chg ([3]; Table 7, sorption, RH 85.01 %, 25.05 deg C, 456.7 min): 7.2160% | Weight % chg ([3]; Table 7, sorption, RH 95.15 %, 25.03 deg C, 640.2 min): 11.2538% | Weight % chg ([3]; Table 7, start, RH 2.94 %, 25.07 deg C, 0.0 min): 0.0000% | solid form after moisture sorption/desorption analysis [3]: a mixture of forms B and form C | weight (water) lost upon equilibration to 5% RH [3]: ~2.4% | RH at which the moisture lost at 5% RH is regained ([3]; sorption cycle): about 44 % RH | TGA Results: percent weight change from 25 to 150° C. ([4]; listed as B): 7.212% | TGA Results: percent weight change from 25 to 150° C. ([4]; listed as form B): 7.2% | XRPD Pattern ([2]; Post TGA @ 150° C. 10 min (dry nitrogen)): converts to form A | form change in VT-XRPD experiment ([2]; heated in the presence of air): converted to a mixture of forms B and C | form change on storage ([2]; vacuum oven at room temperature for 6 days): converts to form C

Nc1ncn([C@H]2C[C@H](O)[C@@H](CO)O2)c(=O)n1 [Form C]
total weight gain from 5 to 95% RH ([3]; 5 to 95% RH): ~13% | solid form after moisture sorption/desorption analysis ([3]; listed as form C): converts to form B | weight (water) lost upon equilibration to 5% RH [3]: 1.4% | weight (water) lost upon equilibration to 5% RH ([3]; listed as form C): approximately 1.4% | XRPD result ([5]; Magnesium Chloride, 33.1 % RH @ 20° C., 28 days): remained unchanged | XRPD result ([5]; Potassium Acetate, 23.1 % RH @ 20° C., 25 days): converted from form C to form B | XRPD result ([5]; Potassium Chloride, 85.1 % RH @ 20° C., 28 days): converted from form C to form B | TGA Results: percent weight change from 25 to 150° C. ([4]; listed as C): 1.2% | TGA Results: percent weight change from 25 to 150° C. ([4]; listed as form C): approximately 1.2% | TGA weight loss at about 150° C. ([4]; sample prepared by vacuum evaporation of a solution in water (sample no. 1029-65-05)): ~7.2% | TGA weight loss at about 150° C. ([4]; weight equilibrium event at 25° C. omitted from the TGA method): approximately 3.2%
